Experimental data from patent US20110105515A1, “TARGETING THE ONCOPROTEIN NUCLEOPHOSMIN” (President and Fellows of Harvard College, priority 2007, published 2011).
Read-outs that look alike come from different tables or passages of the source.

Key:
[1] = system: T-47D; assay: cells; details: Homo sapiens, T47D, 48 h
[2] = system: MDA-MB-231/ATCC; assay: cells; details: Homo sapiens, MDA-MB-231, 48 h; for CC50: read-out: LC50
[3] = system: A498; assay: cells; details: Homo sapiens, A498, 48 h; for CC50: read-out: LC50
[4] = system: A549/ATCC; assay: cells; details: Homo sapiens, A549, 48 h; for CC50: read-out: LC50
[5] = system: HCT-116; assay: cells; details: Homo sapiens, HCT-116, 48 h; for CC50: read-out: LC50
[6] = system: OVCAR-4; assay: cells; details: Homo sapiens, OVCAR-4, 48 h
[7] = system: SW-620; assay: cells; details: Homo sapiens, SW-620, 48 h; for CC50: read-out: LC50
[8] = system: TK-10; assay: cells; details: Homo sapiens, TK-10, 48 h; for CC50: read-out: LC50
[9] = system: CCRF-CEM; assay: cells; details: Homo sapiens, 48 h
[10] = system: HCC-2998; assay: cells; details: Homo sapiens, HCC 2998, 48 h; for CC50: read-out: LC50
[11] = system: OVCAR-5; assay: cells; details: Homo sapiens, OVCAR-5, 48 h; for CC50: read-out: LC50
[12] = system: NCI-H522; assay: cells; details: Homo sapiens, NCI-H522, 48 h; for CC50: read-out: LC50
[13] = system: MOLT-4; assay: cells; details: Homo sapiens, MOLT-4, 48 h; for CC50: read-out: LC50
[14] = system: SNB-75; assay: cells; details: Homo sapiens, SNB-75, 48 h; for CC50: read-out: LC50
[15] = system: UACC-257; assay: cells; details: Homo sapiens, UACC-257, 48 h; for CC50: read-out: LC50
[16] = system: 786-0; assay: cells; details: Homo sapiens, 786-0, 48 h; for CC50: read-out: LC50
[17] = system: MCF7; assay: cells; details: Homo sapiens, MCF7, 48 h; for CC50: read-out: LC50
[18] = system: OVCAR-8; assay: cells; details: Homo sapiens, OVCAR-8, 48 h; for CC50: read-out: LC50
[19] = system: SK-MEL-5; assay: cells; details: Homo sapiens, SK-MEL-5, 48 h; for CC50: read-out: LC50
[20] = system: LOX IMVI; assay: cells; details: Homo sapiens, 48 h; for CC50: read-out: LC50
[21] = system: SF-539; assay: cells; details: Homo sapiens, SF-539, 48 h; for CC50: read-out: LC50
[22] = system: HL-60(TB); assay: cells; details: Homo sapiens, HL-60, 48 h; for CC50: read-out: LC50
[23] = system: NCI/ADR-RES; assay: cells; details: Homo sapiens, 48 h; for CC50: read-out: LC50
[24] = system: EKVX; assay: cells; details: Homo sapiens, 48 h; for CC50: read-out: LC50
[25] = system: SF-268; assay: cells; details: Homo sapiens, SF-268, 48 h; for CC50: read-out: LC50
[26] = system: SK-MEL-28; assay: cells; details: Homo sapiens, SK-MEL-28, 48 h; for CC50: read-out: LC50
[27] = system: M14; assay: cells; details: Homo sapiens, M14, 48 h; for CC50: read-out: LC50
[28] = system: ACHN; assay: cells; details: Homo sapiens, 48 h; for CC50: read-out: LC50
[29] = system: SF-295; assay: cells; details: Homo sapiens, SF-295, 48 h; for CC50: read-out: LC50
[30] = system: DU-145; assay: cells; details: Homo sapiens, DU-145, 48 h; for CC50: read-out: LC50
[31] = system: COLO 205; assay: cells; details: Homo sapiens, COLO 205, 48 h; for CC50: read-out: LC50
[32] = system: RPMI-8226; assay: cells; details: Homo sapiens, RPMI-8226, 48 h
[33] = system: UACC62; assay: cells; details: Homo sapiens, UACC-62, 48 h; for CC50: read-out: LC50
[34] = system: HT29; assay: cells; details: Homo sapiens, HT-29, 48 h; for CC50: read-out: LC50
[35] = system: HOP-92; assay: NCI 60 cell lines, SRB assay: HOP-92; details: for CC50: read-out: LC50
[36] = HOP-92 (Non-Small Cell Lung Cancer), 48 hours, SRB

Cc1cc(C)cc(-c2ccc3c(c2)[N+]([O-])=C2C3=C[C@@]34NC(=O)C5(CCCN5C3=O)CC4C2(C)C)c1 (some centres unmarked) [Biphenyl Analogue]
GI50 [1]: 57.6 nM | GI50 [2]: 240 nM | CC50 [2]: 3760 nM | GI50 [3]: 285 nM | CC50 [3]: 3830 nM | GI50 [4]: 279 nM | CC50 [4]: 3000 nM | GI50 [5]: 186 nM | CC50 [5]: 764 nM | GI50 [6]: 237 nM | GI50 [7]: 151 nM | CC50 [7]: 806 nM | GI50 [8]: 263 nM | CC50 [8]: 3380 nM | GI50 [9]: 105 nM | GI50 [10]: 269 nM | CC50 [10]: 3500 nM | GI50 [11]: 368 nM | CC50 [11]: 4210 nM | GI50 [12]: 66.2 nM | CC50 [12]: 1160 nM | GI50 [13]: 159 nM | CC50 [13]: 79100 nM | GI50 [14]: 242 nM | CC50 [14]: 3860 nM | GI50 [15]: 272 nM | CC50 [15]: 3740 nM | GI50 [16]: 192 nM | CC50 [16]: 825 nM | GI50 [17]: 212 nM | CC50 [17]: 5510 nM | GI50 [18]: 277 nM | CC50 [18]: 3300 nM | GI50 [19]: 166 nM | CC50 [19]: 629 nM | GI50 [20]: 139 nM | CC50 [20]: 534 nM | GI50 [21]: 186 nM | CC50 [21]: 1170 nM | GI50 [22]: 131 nM | CC50 [22]: 64300 nM | GI50 [23]: 992 nM | CC50 [23]: 5180 nM | GI50 [24]: 296 nM | CC50 [24]: 3470 nM | GI50 [25]: 236 nM | CC50 [25]: 3320 nM | GI50 [26]: 252 nM | CC50 [26]: 3770 nM | GI50 [27]: 205 nM | CC50 [27]: 2180 nM | GI50 [28]: 214 nM | CC50 [28]: 2260 nM | GI50 [29]: 392 nM | CC50 [29]: 3970 nM | GI50 [30]: 280 nM | CC50 [30]: 3660 nM | GI50 [31]: 128 nM | CC50 [31]: 526 nM | GI50 [32]: 10.2 nM | GI50 [33]: 161 nM | CC50 [33]: 1850 nM | GI50 [34]: 284 nM | CC50 [34]: > 100000 nM

CN(C)c1cccc2c(S(=O)(=O)NCCCCCCCCCCOc3ccc4c(c3)[N+]([O-])=C3C4=C[C@@]45NC(=O)C6(CCCN6C4=O)CC5C3(C)C)cccc12 (some centres unmarked) [Dansyl Analogue]
GI50 [35, 36]: 224 nM | TGI [35, 36]: 867 nM | CC50 [35, 36]: 12700 nM

[2H]On1c2c(c3ccc4c(c31)C=CC(C)(C)O4)C(OC([2H])([2H])[2H])[C@@]13NC(=O)C4(CCCN4C1=O)CC3C2(C)C (some centres unmarked) [Deuterated Methanol Adduct]
GI50 [1]: 142 nM | GI50 [2]: 538 nM | CC50 [2]: 4320 nM | GI50 [3]: 1020 nM | CC50 [3]: 4820 nM | GI50 [4]: 1560 nM | CC50 [4]: 5730 nM | GI50 [5]: 744 nM | CC50 [5]: 4440 nM | GI50 [6]: 373 nM | CC50 ([6]; read-out: LC50): 4140 nM | GI50 [7]: 375 nM | CC50 [7]: 4900 nM | GI50 [8]: 1070 nM | CC50 [8]: 5150 nM | GI50 [9]: 185 nM | CC50 ([9]; read-out: LC50): 4600 nM | GI50 [10]: 692 nM | CC50 [10]: 4710 nM | GI50 [11]: 586 nM | CC50 [11]: 4490 nM | GI50 [12]: 431 nM | CC50 [12]: 4820 nM | GI50 [13]: 229 nM | CC50 [13]: 8560 nM | GI50 [14]: 265 nM | CC50 [14]: 4720 nM | GI50 [15]: 587 nM | CC50 [15]: 4450 nM | GI50 [16]: 1200 nM | CC50 [16]: 5020 nM | GI50 [17]: 348 nM | CC50 [17]: 4560 nM | GI50 [18]: 960 nM | CC50 [18]: 4770 nM | GI50 [19]: 1410 nM | CC50 [19]: 5230 nM | GI50 [20]: 969 nM | CC50 [20]: 4630 nM | GI50 [21]: 431 nM | CC50 [21]: 3830 nM | GI50 [22]: 298 nM | CC50 [22]: 9370 nM | GI50 [23]: 2610 nM | CC50 [23]: 39400 nM | GI50 [24]: 594 nM | CC50 [24]: 4640 nM | GI50 [25]: 1500 nM | CC50 [25]: 6060 nM | GI50 [26]: 457 nM | CC50 [26]: 4370 nM | GI50 [27]: 1060 nM | CC50 [27]: 5900 nM | TGI [35, 36]: 1300 nM | GI50 ([35]; Homo sapiens, HOP-92, 48 h): 222 nM | CC50 ([35]; Homo sapiens, HOP-92, 48 h): 4620 nM | GI50 [28]: 1270 nM | CC50 [28]: 5030 nM | GI50 [29]: 1280 nM | CC50 [29]: 5810 nM | GI50 [30]: 1750 nM | CC50 [30]: 5590 nM | GI50 [31]: 336 nM | CC50 [31]: 4450 nM | GI50 [32]: 40.2 nM | CC50 ([32]; read-out: LC50): 3300 nM | GI50 [33]: 549 nM | CC50 [33]: 4390 nM | GI50 [34]: 1260 nM | CC50 [34]: 68100 nM
